Where “and” joins values, the source holds several entries; their conditions need not be identical. Equal entries are not always repeated. ± gives the expanded uncertainty stated by the source.
What was measured:
[1] = activity coefficient (dimensionless); of the first substance listed, at infinite dilution; xn = mol fraction of the nth substance listed; conditions: Gas, Chromatography, x1 = 0
[2] = 323.15 K; 101.33 kPa; Liquid; Vibrating tube method

| SMILES | activity coefficient ([1]; 313.15 K) | activity coefficient ([1]; 333.15 K) | activity coefficient ([1]; 353.15 K) | activity coefficient ([1]; 363.15 K) | mass density [2] |
| --- | --- | --- | --- | --- | --- |
| C=CCCCCCCCC [1-decene] + CCCCCCCCCCCCCC[P+](CCCCCC)(CCCCCC)CCCCCC.F[P-](F)(F)(F)(F)F | 2.81 and 2.79 | 2.29 and 2.28 | 1.85 and 1.83 | 1.74 and 1.75 | – |
| C#CCCCCCCCC [1-decyne] + CCCCCCCCCCCCCC[P+](CCCCCC)(CCCCCC)CCCCCC.F[P-](F)(F)(F)(F)F | 2.76 and 2.84 | 2.49 and 2.32 | 1.83 and 1.85 | 1.74 and 1.72 | – |
| C=CCCCCC [1-heptene] + CCCCCCCCCCCCCC[P+](CCCCCC)(CCCCCC)CCCCCC.F[P-](F)(F)(F)(F)F | 1.86 and 1.9 | 1.58 and 1.59 | 1.32 and 1.36 | 1.27 and 1.3 | – |
| C#CCCCCC [1-heptyne] + CCCCCCCCCCCCCC[P+](CCCCCC)(CCCCCC)CCCCCC.F[P-](F)(F)(F)(F)F | 1.96 and 1.8 | 1.59 and 1.61 | 1.36 and 1.32 | 1.3 and 1.27 | – |
| C#CCCCC [1-hexyne] + CCCCCCCCCCCCCC[P+](CCCCCC)(CCCCCC)CCCCCC.F[P-](F)(F)(F)(F)F | 1.66 and 1.71 | 1.42 and 1.43 | 1.16 and 1.24 | 1.16 and 1.14 | – |
| C=CCCCCCCC [1-nonene] + CCCCCCCCCCCCCC[P+](CCCCCC)(CCCCCC)CCCCCC.F[P-](F)(F)(F)(F)F | 2.4 and 2.5 | 2.01 and 1.98 | 1.62 and 1.63 | 1.54 and 1.55 | – |
| C#CCCCCCCC [1-nonyne] + CCCCCCCCCCCCCC[P+](CCCCCC)(CCCCCC)CCCCCC.F[P-](F)(F)(F)(F)F | 2.5 and 2.4 | 1.96 and 2.02 | 1.65 and 1.59 | 1.56 and 1.52 | – |
| C#CCCCCCC [1-octyne] + CCCCCCCCCCCCCC[P+](CCCCCC)(CCCCCC)CCCCCC.F[P-](F)(F)(F)(F)F | 2.19 and 2.03 | 1.79 and 1.75 | 1.44 and 1.56 | 1.41 and 1.46 | – |
| C=CCCC [1-pentene] + CCCCCCCCCCCCCC[P+](CCCCCC)(CCCCCC)CCCCCC.F[P-](F)(F)(F)(F)F | 1.42 and 1.54 | 1.24 and 1.37 | 1.07 and 1.13 | 1.05 and 1.07 | – |
| C#CCCC [1-pentyne] + CCCCCCCCCCCCCC[P+](CCCCCC)(CCCCCC)CCCCCC.F[P-](F)(F)(F)(F)F | 1.52 and 1.44 | 1.28 and 1.27 | 1.05 and 1.15 | 1.03 and 1.09 | – |
| CC(C)=O [acetone] + CCCCCCCCCCCCCC[P+](CCCCCC)(CCCCCC)CCCCCC.F[P-](F)(F)(F)(F)F | 0.648 and 0.694 | 0.517 and 0.507 | 0.388 and 0.404 | 0.371 and 0.381 | – |
| c1ccccc1 [benzene] + CCCCCCCCCCCCCC[P+](CCCCCC)(CCCCCC)CCCCCC.F[P-](F)(F)(F)(F)F | 0.659 and 0.705 | 0.543 and 0.553 | 0.438 and 0.448 | 0.415 and 0.419 | – |
| CCC(C)=O [butanone] + CCCCCCCCCCCCCC[P+](CCCCCC)(CCCCCC)CCCCCC.F[P-](F)(F)(F)(F)F | 0.735 and 0.677 | 0.542 and 0.524 | 0.41 and 0.396 | 0.373 and 0.375 | – |
| C1CCCCCC1 [cycloheptane] + CCCCCCCCCCCCCC[P+](CCCCCC)(CCCCCC)CCCCCC.F[P-](F)(F)(F)(F)F | 1.57 and 1.6 | 1.3 and 1.33 | 1.08 and 1.1 | 1.03 and 1.05 | – |
| C1CCCCC1 [cyclohexane] + CCCCCCCCCCCCCC[P+](CCCCCC)(CCCCCC)CCCCCC.F[P-](F)(F)(F)(F)F | 1.46 and 1.48 | 1.23 and 1.21 | 1.05 and 0.969 | 0.991 and 0.951 | – |
| C1CCCCCCCC1 [cyclononane] + CCCCCCCCCCCCCC[P+](CCCCCC)(CCCCCC)CCCCCC.F[P-](F)(F)(F)(F)F | 1.88 and 1.89 | 1.57 and 1.6 | 1.32 and 1.33 | 1.23 and 1.3 | – |

| SMILES | activity coefficient ([1]; 313.15 K) | activity coefficient ([1]; 333.15 K) | activity coefficient ([1]; 353.15 K) | activity coefficient ([1]; 363.15 K) | mass density [2] |
| --- | --- | --- | --- | --- | --- |
| C1CCCCCCC1 [cyclooctane] + CCCCCCCCCCCCCC[P+](CCCCCC)(CCCCCC)CCCCCC.F[P-](F)(F)(F)(F)F | 1.64 and 1.8 | 1.4 and 1.44 | 1.17 and 1.2 | 1.11 and 1.14 | – |
| C1CCCC1 [cyclopentane] + CCCCCCCCCCCCCC[P+](CCCCCC)(CCCCCC)CCCCCC.F[P-](F)(F)(F)(F)F | 1.35 and 1.34 | 1.08 and 1.14 | 0.901 and 0.941 | 0.883 and 0.871 | – |
| CCCCCCCCCC [decane] + CCCCCCCCCCCCCC[P+](CCCCCC)(CCCCCC)CCCCCC.F[P-](F)(F)(F)(F)F | 3.28 and 3.32 | 2.62 and 2.9 | 2.29 and 2.31 | 2.19 and 2.24 | – |
| CCO [ethanol] + CCCCCCCCCCCCCC[P+](CCCCCC)(CCCCCC)CCCCCC.F[P-](F)(F)(F)(F)F | 2.21 and 2.31 | 1.51 and 1.49 | 0.989 and 1.01 | 0.893 and 0.911 | – |
| CCc1ccccc1 [ethylbenzene] + CCCCCCCCCCCCCC[P+](CCCCCC)(CCCCCC)CCCCCC.F[P-](F)(F)(F)(F)F | 0.961 and 1 | 0.783 and 0.835 | 0.63 and 0.694 | 0.626 and 0.642 | – |
| CCCCCCC [heptane] + CCCCCCCCCCCCCC[P+](CCCCCC)(CCCCCC)CCCCCC.F[P-](F)(F)(F)(F)F | 2.25 and 2.19 | 1.81 and 2 | 1.65 and 1.67 | 1.55 and 1.65 | – |
| C=CCCCC [hex-1-ene] + CCCCCCCCCCCCCC[P+](CCCCCC)(CCCCCC)CCCCCC.F[P-](F)(F)(F)(F)F | 1.67 and 1.7 | 1.41 and 1.44 | 1.14 and 1.26 | 1.13 and 1.17 | – |
| CCCCCC [hexane] + CCCCCCCCCCCCCC[P+](CCCCCC)(CCCCCC)CCCCCC.F[P-](F)(F)(F)(F)F | 1.96 and 2.07 | 1.69 and 1.79 | 1.48 and 1.5 | 1.43 and 1.47 | – |
| CO [methanol] + CCCCCCCCCCCCCC[P+](CCCCCC)(CCCCCC)CCCCCC.F[P-](F)(F)(F)(F)F | 2.12 and 2.14 | 1.41 and 1.44 | 0.938 and 0.984 | 0.855 and 0.881 | – |
| CCCCCCCCC [nonane] + CCCCCCCCCCCCCC[P+](CCCCCC)(CCCCCC)CCCCCC.F[P-](F)(F)(F)(F)F | 2.77 and 3.04 | 2.43 and 2.47 | 2.09 and 2.05 | 1.98 and 2 | – |
| C=CCCCCCC [oct-1-ene] + CCCCCCCCCCCCCC[P+](CCCCCC)(CCCCCC)CCCCCC.F[P-](F)(F)(F)(F)F | 2.02 and 2.2 | 1.75 and 1.79 | 1.51 and 1.48 | 1.44 and 1.43 | – |
| CCCCCCCC [octane] + CCCCCCCCCCCCCC[P+](CCCCCC)(CCCCCC)CCCCCC.F[P-](F)(F)(F)(F)F | 2.53 and 2.49 | 2.12 and 2.18 | 1.87 and 1.83 | 1.81 and 1.74 | – |
| CCCCC [pentane] + CCCCCCCCCCCCCC[P+](CCCCCC)(CCCCCC)CCCCCC.F[P-](F)(F)(F)(F)F | 1.77 and 1.92 | 1.52 and 1.55 | 1.27 and 1.29 | 1.19 and 1.25 | – |
| CCCc1ccccc1 [propylbenzene] + CCCCCCCCCCCCCC[P+](CCCCCC)(CCCCCC)CCCCCC.F[P-](F)(F)(F)(F)F | 1.14 and 1.1 | 0.939 and 0.949 | 0.799 and 0.779 | 0.777 and 0.735 | – |
| Cc1ccccc1 [toluene] + CCCCCCCCCCCCCC[P+](CCCCCC)(CCCCCC)CCCCCC.F[P-](F)(F)(F)(F)F | 0.772 and 0.814 | 0.671 and 0.639 | 0.535 and 0.541 | 0.506 and 0.516 | – |
| CCCCCCCCCCCCCC[P+](CCCCCC)(CCCCCC)CCCCCC.F[P-](F)(F)(F)(F)F [trihexyl(tetradecyl)phosphonium hexafluorophosphate(V)] | – | – | – | – | 987.15 ± 1.1 kg/m3 |
